The results in this text go back to patent publication US7671061B2, “Methods and compositions for treating pain” (Hydra Biosciences, Inc., priority 2005, dated 2010).

Structures are written as SMILES. Entries after “also recorded” stand apart in the source; their conditions may differ. Read-outs that look alike come from different tables or passages of the source.

By IC50 is commonly meant the concentration that inhibits the measured activity by half.

One series can be described thus: Stability in rat plasma. It is filed as in vitro ADME. To be noted: 37° C. The protocol: Compound 200 was stable in rat plasma for ≧1 hour at 37° C.
The target in the next series is hNaV1.2 (Homo sapiens, UniProt Q99250). The series can be described thus: hNaV1.2 patch clamp (Qpatch) selectivity. It is filed as cell-based. The settings on record: Table 2. Background: In patch-clamp work, channel activity is measured electrically.
hNaV1.2, sequence (Q99250 whole entry, the tested form may be a part): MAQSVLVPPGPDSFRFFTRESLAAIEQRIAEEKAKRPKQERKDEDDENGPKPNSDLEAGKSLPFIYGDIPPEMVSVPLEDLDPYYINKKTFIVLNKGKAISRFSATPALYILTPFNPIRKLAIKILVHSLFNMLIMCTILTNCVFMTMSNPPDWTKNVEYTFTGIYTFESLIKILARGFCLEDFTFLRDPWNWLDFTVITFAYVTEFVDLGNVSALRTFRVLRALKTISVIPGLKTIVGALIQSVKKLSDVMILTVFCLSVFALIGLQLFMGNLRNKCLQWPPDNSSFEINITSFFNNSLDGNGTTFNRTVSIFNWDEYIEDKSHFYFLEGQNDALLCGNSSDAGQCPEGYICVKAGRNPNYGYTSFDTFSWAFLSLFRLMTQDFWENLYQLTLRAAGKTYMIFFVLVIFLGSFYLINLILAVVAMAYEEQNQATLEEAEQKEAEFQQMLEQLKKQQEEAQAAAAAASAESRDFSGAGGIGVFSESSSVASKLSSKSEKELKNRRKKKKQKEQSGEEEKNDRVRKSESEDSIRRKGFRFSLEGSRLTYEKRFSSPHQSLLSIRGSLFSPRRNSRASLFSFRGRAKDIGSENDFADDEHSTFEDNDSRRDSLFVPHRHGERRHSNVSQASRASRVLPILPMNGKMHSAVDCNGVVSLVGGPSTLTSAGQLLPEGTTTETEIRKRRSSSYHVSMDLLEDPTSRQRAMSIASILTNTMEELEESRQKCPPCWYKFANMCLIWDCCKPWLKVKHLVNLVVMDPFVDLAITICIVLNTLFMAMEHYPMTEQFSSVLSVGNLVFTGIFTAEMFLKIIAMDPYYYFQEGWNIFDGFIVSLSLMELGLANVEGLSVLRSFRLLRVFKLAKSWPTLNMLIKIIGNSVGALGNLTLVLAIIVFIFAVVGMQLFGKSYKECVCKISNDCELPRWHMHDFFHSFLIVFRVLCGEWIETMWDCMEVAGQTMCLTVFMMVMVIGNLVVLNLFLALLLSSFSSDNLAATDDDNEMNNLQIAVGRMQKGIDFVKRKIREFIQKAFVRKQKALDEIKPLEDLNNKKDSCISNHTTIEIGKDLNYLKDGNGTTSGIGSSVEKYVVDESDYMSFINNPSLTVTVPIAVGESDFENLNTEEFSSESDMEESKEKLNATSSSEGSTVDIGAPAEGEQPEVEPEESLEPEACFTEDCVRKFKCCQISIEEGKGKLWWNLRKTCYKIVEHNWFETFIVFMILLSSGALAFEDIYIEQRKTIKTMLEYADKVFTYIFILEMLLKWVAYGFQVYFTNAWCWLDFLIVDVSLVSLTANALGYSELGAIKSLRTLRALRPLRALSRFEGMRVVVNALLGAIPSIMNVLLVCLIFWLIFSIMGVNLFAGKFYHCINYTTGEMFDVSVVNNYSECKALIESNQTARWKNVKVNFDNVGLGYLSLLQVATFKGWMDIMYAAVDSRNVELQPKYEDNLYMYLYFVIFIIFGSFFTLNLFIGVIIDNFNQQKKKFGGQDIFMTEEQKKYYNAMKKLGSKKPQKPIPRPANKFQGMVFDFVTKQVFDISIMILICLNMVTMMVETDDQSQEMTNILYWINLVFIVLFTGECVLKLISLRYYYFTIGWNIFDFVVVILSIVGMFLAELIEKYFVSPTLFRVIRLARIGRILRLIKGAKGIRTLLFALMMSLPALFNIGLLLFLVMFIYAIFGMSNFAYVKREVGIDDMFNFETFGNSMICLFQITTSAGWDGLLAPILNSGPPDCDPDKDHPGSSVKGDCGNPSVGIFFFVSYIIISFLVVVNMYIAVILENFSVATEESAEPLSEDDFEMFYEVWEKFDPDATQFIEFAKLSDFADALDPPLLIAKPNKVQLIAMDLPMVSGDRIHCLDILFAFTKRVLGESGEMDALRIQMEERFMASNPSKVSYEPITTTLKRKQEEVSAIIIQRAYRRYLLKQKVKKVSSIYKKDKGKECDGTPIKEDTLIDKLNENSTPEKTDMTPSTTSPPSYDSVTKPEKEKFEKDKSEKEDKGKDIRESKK
Series [1] deals with BOO model of incontinence. The settings on record: BOO rats, intravesical infusion.
Source text: Efficacy of the varying doses of TRPA1 inhibitory compound were compared to controls administered excipients alone (sham control). Efficacy was also compared to rats administered a positive control, such as atropine.
Female Sprague Dawley rats were used in these studies. Rats underwent surgical partial bladder outlet obstruction (BOO) or sham surgery. Five weeks after BOO (or sham) surgery, an intravesical catheter was surgically implanted into the dome of the bladder for conducting urodynamic studies. One week after catheter implantation (6 weeks after BOO or sham), urodynamic studies began. […] An analytic balance beneath the wire-bottom animal cage measured the amount of urine voided during continuous cystometry. […]
For each CMG cycle, the following parameters were assessed: infused volume (the amount of saline or drug infused for each CMG cycle); void volume (the amount of urine voided by the animal for each CMG cycle); minimum pressure (minimum pressure during filling); threshold pressure (pressure prior to micturition when bladder pressure begins to rise steeply); average pressure (average pressure during filling and before threshold); maximum pressure; intermicturition interval (time between two subsequent voiding events); urine flow rate index.
The target of a further series is hERG (Homo sapiens, UniProt Q12809). The series can be described thus: hERG patch clamp (Qpatch) selectivity. To be noted: hERG IC50 (nM), Table 2. (The hERG channel carries a current that helps repolarise heart muscle cells.)
hERG, sequence (Q12809 whole entry): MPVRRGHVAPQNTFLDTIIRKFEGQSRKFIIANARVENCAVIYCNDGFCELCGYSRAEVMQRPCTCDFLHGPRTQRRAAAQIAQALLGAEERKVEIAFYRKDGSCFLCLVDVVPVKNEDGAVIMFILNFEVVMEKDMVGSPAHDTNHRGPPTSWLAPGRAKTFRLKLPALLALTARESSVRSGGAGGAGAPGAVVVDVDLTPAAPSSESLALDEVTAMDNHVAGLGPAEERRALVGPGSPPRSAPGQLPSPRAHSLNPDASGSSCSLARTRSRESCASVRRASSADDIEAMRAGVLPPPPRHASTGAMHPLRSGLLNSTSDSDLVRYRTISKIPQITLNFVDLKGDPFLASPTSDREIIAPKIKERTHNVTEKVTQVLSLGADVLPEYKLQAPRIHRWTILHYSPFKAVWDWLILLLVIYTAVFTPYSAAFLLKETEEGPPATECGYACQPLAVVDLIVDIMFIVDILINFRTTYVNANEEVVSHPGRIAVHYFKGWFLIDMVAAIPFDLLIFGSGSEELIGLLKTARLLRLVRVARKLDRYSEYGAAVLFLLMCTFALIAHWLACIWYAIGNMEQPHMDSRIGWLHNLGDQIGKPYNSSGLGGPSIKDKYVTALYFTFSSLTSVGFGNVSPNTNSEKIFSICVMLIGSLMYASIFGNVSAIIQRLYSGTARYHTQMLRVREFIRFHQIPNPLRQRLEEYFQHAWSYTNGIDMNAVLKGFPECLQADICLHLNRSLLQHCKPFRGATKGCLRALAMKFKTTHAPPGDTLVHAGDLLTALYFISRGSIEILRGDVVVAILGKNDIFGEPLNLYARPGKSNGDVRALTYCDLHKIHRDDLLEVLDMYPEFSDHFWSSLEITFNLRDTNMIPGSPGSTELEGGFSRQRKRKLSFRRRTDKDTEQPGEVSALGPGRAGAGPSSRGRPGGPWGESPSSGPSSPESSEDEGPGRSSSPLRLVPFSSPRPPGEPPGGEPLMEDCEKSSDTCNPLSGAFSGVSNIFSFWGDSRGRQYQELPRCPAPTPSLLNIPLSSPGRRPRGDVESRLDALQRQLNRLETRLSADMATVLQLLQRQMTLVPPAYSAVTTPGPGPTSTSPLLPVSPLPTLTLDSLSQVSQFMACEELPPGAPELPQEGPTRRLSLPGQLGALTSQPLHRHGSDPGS
In another series the test system is formalin model. The series can be described thus: Formalin model of pain. It is filed as in vivo, rat. The settings on record: both Early Phase and Late Phase, drug 15 min before formalin. How it is done:
As outlined above, the formalin model involves injection of a formalin solution intradermally or […]. Injection of formalin solution invokes a biphasic response, and thus provides a model for both nociceptive and inflammatory pain. The formalin model can be used to evaluate the effectiveness of an exemplary TRPA1 inhibitor in the treatment of pain. […] Briefly, the following protocol was followed. Male Holtzmann rats received intraplantar injections of 50 μL of 2% formalin. Paw flinching was detected by an automated sensor detecting movement of a small metal band placed on the injected hind paw. Drug or vehicle was administered approximately 15 minutes prior to the injection of formalin. The animal's response to injection of the irritant was measured by counting flinches per minutes during the Early Phase (the first 5 minutes following injection of formalin), during the Late Phase (approximately 30 minutes after injection of formalin), and during the intervening pain free phase. In FIG. 2, the right most bar for each data set (Early Phase and Late Phase) represents administration of vehicle alone and the left most bar represents administration of gabapentin. […]

For series [2], the system named is bradykinin induced tactile allodynia. Nature of the series: Bradykinin induced pain model. It is filed as in vivo, rat. The protocol:
As outlined above, the bradykinin model involves an intraplantar injection of a 5 ng/uL solution of bradykinin. Injection of the bradykinin solution typically causes a rapid sensitization. Sensitization is measured by assessing the thermal escape latency of the injected paw in response to a mild thermal stimulus delivered by a modified Hargreaves apparatus. FIGS. 1a and 1b summarize data obtained following testing of Compound 200 in the bradykinin model. This study examined the antinociceptive effects of 200 mg/kg, 50 mg/kg, and 12.5 mg/kg intraperitoneal Compound 200 on bradykinin induced tactile allodynia. […] Inhibitor or vehicle were injected intraperitoneally (IP). […] Throughout the study, general behavioral assessments were made during each period of observation. Observations included tactile allodynia (vocalization/agitation induced by light touch applied to the body surface), spontaneous vocalization, biting and chewing of body surface, loss of hind limb placing and stepping reflex, loss of hind limb weight bearing, and loss of righting reflex. Additionally, mechanical allodynia was assessed and measured. The results provided in FIGS. 1a and 1b are based on assessment of mechanical allodynia.

In the next series the target is T1, hTRPA1 (Homo sapiens, UniProt O75762, K186N).
T1 construct: expressed in transfected cells; host or cells: HEK293/TREx (Invitrogen), induced with tetracycline
T1 sequence (O75762 whole entry K186N): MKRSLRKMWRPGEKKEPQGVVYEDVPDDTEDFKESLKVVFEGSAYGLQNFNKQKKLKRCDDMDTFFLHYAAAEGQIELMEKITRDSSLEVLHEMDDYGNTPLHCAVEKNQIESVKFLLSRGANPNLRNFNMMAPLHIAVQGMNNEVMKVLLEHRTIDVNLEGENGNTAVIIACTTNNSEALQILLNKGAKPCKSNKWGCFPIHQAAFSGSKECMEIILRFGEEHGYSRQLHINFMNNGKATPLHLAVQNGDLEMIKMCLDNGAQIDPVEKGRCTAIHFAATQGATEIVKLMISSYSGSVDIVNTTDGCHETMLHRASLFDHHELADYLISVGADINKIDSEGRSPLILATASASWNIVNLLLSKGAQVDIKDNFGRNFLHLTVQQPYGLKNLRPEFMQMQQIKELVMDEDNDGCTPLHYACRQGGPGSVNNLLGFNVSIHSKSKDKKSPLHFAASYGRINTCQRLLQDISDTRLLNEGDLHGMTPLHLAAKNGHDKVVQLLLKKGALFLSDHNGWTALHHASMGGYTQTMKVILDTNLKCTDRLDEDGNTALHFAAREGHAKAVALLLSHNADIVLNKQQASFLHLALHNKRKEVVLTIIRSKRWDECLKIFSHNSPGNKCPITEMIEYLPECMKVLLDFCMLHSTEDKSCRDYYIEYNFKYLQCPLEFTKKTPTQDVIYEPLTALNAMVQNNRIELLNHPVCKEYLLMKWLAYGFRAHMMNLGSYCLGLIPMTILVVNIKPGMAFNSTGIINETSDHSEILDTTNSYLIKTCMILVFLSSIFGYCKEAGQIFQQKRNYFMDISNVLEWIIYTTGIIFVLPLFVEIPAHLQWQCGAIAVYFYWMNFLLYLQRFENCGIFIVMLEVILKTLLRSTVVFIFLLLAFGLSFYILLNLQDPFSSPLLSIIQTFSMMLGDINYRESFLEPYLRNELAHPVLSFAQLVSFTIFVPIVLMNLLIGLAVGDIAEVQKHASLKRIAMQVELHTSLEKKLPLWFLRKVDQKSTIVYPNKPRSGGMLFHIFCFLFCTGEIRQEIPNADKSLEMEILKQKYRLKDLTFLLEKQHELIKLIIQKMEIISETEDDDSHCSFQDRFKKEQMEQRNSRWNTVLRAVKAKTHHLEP
The series can be described thus: TRPA1 patch clamp (perforated patch, AITC-activated current). It is filed as cell-based. In outline: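 HEK293 TREx cells expressing the channel were recorded by amphotericin perforated patch at −40 mV holding, with 400 ms ramps from −120 to +100 mV every 5 s. Current was activated with 5 μM AITC in pH 7.4 external solution, and block of inward and outward current was measured at −80 and +80 mV with AITC still present.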

For the compound `CC(C)c1ccc(NC(=O)Cn2cnc3c2c(=O)n(C)c(=O)n3C)cc1` [Compound 200, 2-(1,3-dimethyl-2,6-dioxo-1,2,3,6-tetrahydropurin-7-yl)-N-(4-isopropylphenyl)acetamide], the “stable in rat plasma” value in “Stability in rat plasma” was at least 1 h. On hNaV1.2, the “selective for TRPA1 over NaV1.2” value is given as at least 25 fold. Further, the IC50 on hNaV1.2 (read-out: hNaV1.2 IC50) was at least 30 µM; against hERG it was at least 20000 nM; on hTRPA1 (Table 2, inward current, read-out: hTRPA1 Patch Inwd IC50), at most 5 µM; on hTRPA1 (stated in Example 4 (1000 nM=355 ng/mL), read-out: IC50 against TRPA1) it was 1 µM. The maximum bladder pressure result in series [1] is listed as “decreased”. The threshold bladder pressure result in series [1] was “decreased”. The flinches per minute result in the series with formalin model was “substantially reduced”. For the same compound, in series [2] (IP 12.5, 50, 200 mg/kg, 30 min before bradykinin), the “effect on mechanical threshold / allodynia after bradykinin injection” value is reported as “dose dependent effect; also recorded: dose dependent decrease of allodynia”. The “changes in behavioral parameters” value in series [2] (IP doses up to 200 mg/kg) is “no changes in behavioral parameters were noted”. The “duration of effect on mechanical threshold” value in series [2] (IP doses up to 200 mg/kg) was “approximately 60 minutes”. Moreover, the “rats with mild sedation” value in series [2] (highest dose (200 mg/kg IP)) is 3 of 8.
